Results: US20190134150A1, “THERAPEUTIC METHODS FOR EXCITATORY NEUROTOXICITY-RELATED INJURIES” (Biocells (Beijing) Biotech Co., Ltd., priority 2016, published 2019)
Values joined by “and” are separate entries in the source; they are usually repeats but may differ in a detail not shown here. Equal entries are not always repeated. No end group written: not given here.

Tests used:
MCAO model rats = test: Cerebral infarction volume (TTC staining) in MCAO model rats; settings: rat, in vivo
Description: The focal cerebral ischemia-reperfusion model was prepared according to the reversible middle cerebral artery occlusion (MCAO) suture method proposed by Longa with modifications in view of the anatomical structure of the rat brain. The rats were anesthetized by intraperitoneal administration of 10% chloral hydrate at a dose of […]. After anesthetization, a cut was created at the cervical midline, and the common carotid artery (CCA), external carotid artery (ECA) and pterygopalatine artery were exposed. The head portion (0.5 cm) of a monofilament nylon fishing line (0.26 mm) was coated with paraffin and a mark was made at 20 mm. All rats were inserted through the right CCA incision, and the pterygopalatine artery was temporarily clamped to prevent mis-insertion. The length of the occlusion line was about 18-20 mm from the bifurcation of CCA depending on the animal's weight, thereby occluding middle cerebral artery on the right side. The skin was then sewed, and the tail end of the occlusion line was partially fixed to the skin. After a period of ischemia for 2 hours, the occlusion line was carefully pulled out to form a reperfusion. The procedure steps for the sham control were the same as the surgery group, except for insertion of a nylon fishing line. The body temperature was maintained at 37±0.5° C. during the ischemia period and 2 h after reperfusion.
The used animals were male adult SD rats (Vittalia) of SPF grade with body weight of 220-250 g.
The experimental animals were divided into the negative control group, sham group, model group, positive drug Enbipu group, NA-1 group, YE-NA-1 group and P6 group. A saline solution, positive drug Enbipu, NA-1 (10 mg/kg), YE-NA-1 (10 mg/kg) and P6 (10 mg/kg, 3 mg/kg and 1 mg/kg) were respectively administered to individual group of rats via tail vein injection at 1 hour after ischemia. No drugs were administered to the normal group and the sham group.
The rats were sacrificed by decapitation after scoring. The brain tissues were quickly removed and placed in a refrigerator at −20° C. After 10 minutes, the tissues were placed in a room temperature environment. The brains were placed in a rat brain section mold. After the olfactory bulb, cerebellum and low brain stem were removed, the brains were coronally cut five times at 2 mm thickness as shown in the profile to obtain six continuous raw coronal slices. Then, the brain sections were quickly placed in a 5 ml solution containing 2% TTC, and incubated at 37° C. for 30 minutes in the dark, during which the brain sections were flipped once every 5 minutes. With the TTC staining, the normal tissue would be rose red, and the infarcted tissue would be unstained and retained white. Each group of brain sections was arranged neatly, and photographed. The photos were processed by an image analysis system software and statistically analyzed. The infarction area of each brain section was calculated, and multiplied by the thickness of each brain section (2 mm). The products of the infarction area of individual brain section multiplied by the thickness were summed to obtain the cerebral infarction volume for each animal. The volumes were expressed as percentages accounting for the cerebral hemisphere to eliminate the effects of cerebral edema.

PDZ1/2 domain = test: SPR, Biacore 3000, PDZ1/2 amine-coupled on CM5 chip, peptide as analyte, 1:1 model

YGRKKRRQRRRYEKLTTLDTGGV [P6]
Mean of infarction volume percentage (MCAO model rats): 26.71% and 37.89% and 43.75%
Mean of infarction volume percentage (MCAO model rats; 1 mg/kg): 41.56%
Reduction of infarction volume percentage vs model group (MCAO model rats; 1 mg/kg): 9.57%
Mean of infarction volume percentage (MCAO model rats; 3 mg/kg): 38.34%
Reduction of infarction volume percentage vs model group (MCAO model rats; 3 mg/kg): 16.58%
effect on cerebral infarction volume (MCAO model rats; 3 mg/kg): desirably reduced the cerebral infarction volume
Mean of infarction volume percentage (MCAO model rats; 10 mg/kg): 19.54%
Reduction of infarction volume percentage vs model group (MCAO model rats; 10 mg/kg): 57.48%
reduction of cerebral infarction volume (MCAO model rats; 10 mg/kg): about 50%

control chimeric peptide NA-1
Kd (PDZ1/2 domain): 75.3 nM

YGRKKRRQRRRKLSSIESDV [NA-1, reference compound]
Mean of infarction volume percentage (MCAO model rats): 38.56%

YGRKKRRQRRRYEKLSSIESDV [YE-NA-1, reference compound]
Mean of infarction volume percentage (MCAO model rats): 33.96%

YGRKKRRQRRRYEKLSSIESDV [chimeric peptide YE-NA-1]
Kd (PDZ1/2 domain): 54.4 nM
